Values joined by “and” are separate entries in the source; they are usually repeats but may differ in a detail not shown here. Equal entries are not always repeated. HELM strings list units from the 5' end as sugar, base in round brackets, then linkage (d deoxyribose, r ribose, m 2'-O-methyl, p phosphodiester). Strings are as the collection lists them, not checked against the first reports. ss, as = sense and antisense strand; [fl2r] = 2'-fluoro
Further: test system not given here.

The conditions of the data set: siRNA.
For “RNA1{r(G)p.r(U)p.r(G)p.r(A)p.r(A)p.r(G)p.r(U)p.r(C)p.r(A)p.r(A)p.r(C)p.r(A)p.r(U)p.r(G)p.r(C)p.r(C)p.r(U)p.r(G)p.r(C)p.d(T)p.d(T)}|RNA2{r(G)p.r(C)p.r(A)p.r(G)p.r(G)p.r(C)p.r(A)p.r(U)p.r(G)p.r(U)p.r(U)p.r(G)p.r(A)p.r(C)p.r(U)p.r(U)p.r(C)p.r(A)p.r(C)p.d(T)p.d(T)}$$$RNA1{StrandType:ss}|RNA2{StrandType:as}$”, the target mRNA knockdown is 50% and 70%.
Then “RNA1{r(G)p.r(U)p.r(U)p.[fl2r](C)p.r(A)p.r(C)p.r(G)p.r(U)p.r(C)p.r(C)p.[fl2r](U)p.r(A)p.r(C)p.r(C)p.r(C)p.r(C)p.r(U)p.r(U)p.r(U)p.r(T)p.r(T)}|RNA2{r(A)p.r(A)p.r(A)p.r(G)p.r(G)p.r(G)p.r(G)p.[fl2r](U)p.r(A)p.r(G)p.r(G)p.r(A)p.r(C)p.r(G)p.[fl2r](U)p.r(G)p.r(A)p.r(A)p.r(C)p.r(T)p.r(T)}$$$RNA1{StrandType:ss}|RNA2{StrandType:as}$”, with 65%; and “RNA1{r(G)p.r(U)p.r(U)p.r(C)p.r(A)p.r(C)p.r(G)p.r(U)p.r(C)p.r(C)p.r(U)p.r(A)p.r(C)p.r(C)p.r(C)p.r(C)p.r(U)p.r(U)p.r(U)p.r(T)p.r(T)}|RNA2{r(A)p.r(A)p.r(A)p.r(G)p.r(G)p.r(G)p.r(G)p.[fl2r](U)p.r(A)p.r(G)p.r(G)p.r(A)p.r(C)p.r(G)p.r(U)p.r(G)p.r(A)p.r(A)p.r(C)p.r(T)p.r(T)}$$$RNA1{StrandType:ss}|RNA2{StrandType:as}$”, with 69%.
With “RNA1{r(U)p.[fl2r](U)p.r(A)p.r(C)p.r(C)p.r(C)p.r(C)p.r(G)p.r(A)p.r(U)p.r(U)p.[fl2r](C)p.r(A)p.r(G)p.r(C)p.r(C)p.r(U)p.r(C)p.r(U)p.r(T)p.r(T)}|RNA2{r(A)p.r(G)p.r(A)p.r(G)p.r(G)p.r(C)p.[fl2r](U)p.r(G)p.r(A)p.r(A)p.r(U)p.r(C)p.r(G)p.r(G)p.r(G)p.r(G)p.[fl2r](U)p.r(A)p.r(A)p.r(T)p.r(T)}$$$RNA1{StrandType:ss}|RNA2{StrandType:as}$”, the target mRNA knockdown was found to be 82%.
For “RNA1{r(U)p.[fl2r](U)p.r(A)p.r(C)p.r(C)p.r(C)p.r(C)p.r(G)p.r(A)p.r(U)p.r(U)p.r(C)p.r(A)p.r(G)p.r(C)p.r(C)p.r(U)p.r(C)p.r(U)p.r(T)p.r(T)}|RNA2{r(A)p.r(G)p.r(A)p.r(G)p.r(G)p.r(C)p.r(U)p.r(G)p.r(A)p.r(A)p.r(U)p.r(C)p.r(G)p.r(G)p.r(G)p.r(G)p.r(U)p.[fl2r](A)p.r(A)p.r(T)p.r(T)}$$$RNA1{StrandType:ss}|RNA2{StrandType:as}$”, the target mRNA knockdown came to 69%.
In the case of “RNA1{r(U)p.m(U)p.m(A)p.r(A)p.r(A)p.r(G)p.m(G)p.r(G)p.r(C)p.r(G)p.r(A)p.r(G)p.r(A)p.r(A)p.r(G)p.r(A)p.r(C)p.r(C)p.r(G)p.r(T)p.r(T)}|RNA2{r(C)p.r(G)p.r(G)p.r(U)p.r(C)p.r(U)p.r(U)p.r(C)p.r(U)p.r(C)p.r(G)p.r(C)p.r(C)p.r(C)p.r(U)p.r(U)p.m(U)p.r(A)p.r(A)p.r(T)p.r(T)}$$$RNA1{StrandType:ss}|RNA2{StrandType:as}$” it was 85%; in that of “RNA1{r(U)p.m(U)p.m(G)p.r(G)p.r(G)p.r(G)p.m(A)p.m(A)p.r(G)p.r(C)p.r(G)p.r(G)p.r(C)p.r(C)p.r(G)p.r(G)p.r(C)p.r(G)p.r(G)p.r(T)p.r(T)}|RNA2{r(C)p.r(C)p.r(G)p.r(C)p.r(C)p.r(G)p.r(G)p.r(C)p.r(C)p.r(G)p.r(C)p.r(U)p.r(U)p.r(C)p.r(C)p.r(C)p.m(C)p.r(A)p.r(A)p.r(T)p.r(T)}$$$RNA1{StrandType:ss}|RNA2{StrandType:as}$”, 78%; in that of “RNA1{r(U)p.m(U)p.r(A)p.m(C)p.r(A)p.r(A)p.r(A)p.m(G)p.m(G)p.r(A)p.r(U)p.r(C)p.r(U)p.r(C)p.r(C)p.r(U)p.r(C)p.r(C)p.r(C)p.r(T)p.r(T)}|RNA2{r(G)p.r(G)p.r(G)p.r(A)p.r(G)p.r(G)p.r(A)p.r(G)p.r(A)p.r(U)p.r(C)p.r(C)p.r(U)p.r(U)p.m(U)p.r(G)p.m(U)p.r(A)p.r(A)p.r(T)p.r(T)}$$$RNA1{StrandType:ss}|RNA2{StrandType:as}$”, 72%.
In the case of “RNA1{r(U)p.m(U)p.r(A)p.m(C)p.r(A)p.r(A)p.r(A)p.r(G)p.r(G)p.m(A)p.r(U)p.r(C)p.r(U)p.r(C)p.r(C)p.r(U)p.r(C)p.r(C)p.r(C)p.r(T)p.r(T)}|RNA2{r(G)p.r(G)p.r(G)p.r(A)p.r(G)p.r(G)p.r(A)p.r(G)p.m(A)p.r(U)p.r(C)p.r(C)p.r(U)p.r(U)p.m(U)p.r(G)p.m(U)p.r(A)p.r(A)p.r(T)p.r(T)}$$$RNA1{StrandType:ss}|RNA2{StrandType:as}$” it was 78%; in that of “RNA1{r(U)p.m(U)p.r(A)p.r(A)p.r(A)p.r(G)p.r(G)p.r(G)p.r(C)p.r(G)p.r(A)p.r(G)p.r(A)p.r(A)p.r(G)p.r(A)p.r(C)p.r(C)p.r(G)p.r(T)p.r(T)}|RNA2{r(C)p.r(G)p.r(G)p.r(U)p.r(C)p.r(U)p.r(U)p.r(C)p.r(U)p.r(C)p.r(G)p.r(C)p.r(C)p.r(C)p.r(U)p.r(U)p.m(U)p.r(A)p.r(A)p.r(T)p.r(T)}$$$RNA1{StrandType:ss}|RNA2{StrandType:as}$”, 87%.
Then “RNA1{r(U)p.m(U)p.r(A)p.r(A)p.r(G)p.r(G)p.r(A)p.r(G)p.r(A)p.r(A)p.r(G)p.r(C)p.m(U)p.m(G)p.r(A)p.r(C)p.r(G)p.r(G)p.r(C)p.r(T)p.r(T)}|RNA2{r(G)p.r(C)p.r(C)p.r(G)p.r(U)p.m(C)p.r(A)p.r(G)p.r(C)p.r(U)p.r(U)p.r(C)p.r(U)p.r(C)p.r(C)p.r(U)p.m(U)p.r(A)p.r(A)p.r(T)p.r(T)}$$$RNA1{StrandType:ss}|RNA2{StrandType:as}$”, with 82%; and “RNA1{r(U)p.m(U)p.r(A)p.r(A)p.r(G)p.r(G)p.r(A)p.r(G)p.r(A)p.r(A)p.r(G)p.r(C)p.m(U)p.r(G)p.r(A)p.r(C)p.r(G)p.r(G)p.r(C)p.r(T)p.r(T)}|RNA2{r(G)p.r(C)p.r(C)p.r(G)p.r(U)p.m(C)p.r(A)p.r(G)p.r(C)p.r(U)p.r(U)p.r(C)p.r(U)p.r(C)p.r(C)p.r(U)p.m(U)p.r(A)p.r(A)p.r(T)p.r(T)}$$$RNA1{StrandType:ss}|RNA2{StrandType:as}$”, with 67%.
The substance “RNA1{r(U)p.m(U)p.r(A)p.r(A)p.r(G)p.r(G)p.r(A)p.r(G)p.r(A)p.r(A)p.r(G)p.r(C)p.r(U)p.r(G)p.r(A)p.r(C)p.r(G)p.r(G)p.r(C)p.r(T)p.r(T)}|RNA2{r(G)p.r(C)p.r(C)p.r(G)p.r(U)p.m(C)p.r(A)p.r(G)p.r(C)p.r(U)p.r(U)p.r(C)p.r(U)p.r(C)p.r(C)p.r(U)p.m(U)p.r(A)p.r(A)p.r(T)p.r(T)}$$$RNA1{StrandType:ss}|RNA2{StrandType:as}$” came in with a target mRNA knockdown of 83%.
In the case of “RNA1{r(U)p.m(U)p.r(A)p.r(A)p.r(G)p.r(G)p.r(A)p.r(G)p.r(A)p.r(A)p.r(G)p.r(C)p.r(U)p.r(G)p.r(A)p.r(C)p.r(G)p.r(G)p.r(C)p.r(T)p.r(T)}|RNA2{r(G)p.r(C)p.r(C)p.r(G)p.r(U)p.r(C)p.r(A)p.r(G)p.r(C)p.r(U)p.r(U)p.r(C)p.r(U)p.r(C)p.r(C)p.r(U)p.m(U)p.r(A)p.r(A)p.r(T)p.r(T)}$$$RNA1{StrandType:ss}|RNA2{StrandType:as}$” it was 69%.

For the origin of these results see the OligoGym collection.
